Test results taken from the NIST ThermoML archive (doi:10.1021/je700036v).
± gives the expanded uncertainty stated by the source.

Assay: refractive index (Na D-line) (dimensionless)
Conditions: 293.1 K; 101.33 kPa; Liquid; Standard Abbe refractometry

Row | Compound | refractive index
1 | O=CN1CCOCC1 [N-formylmorpholine] | 1.484 ± 0.0007
2 | CC1CCCCC1 [methylcyclohexane] | 1.423 ± 0.0007
3 | Cc1ccccc1 [toluene] | 1.4873 ± 0.0007
